Measurements taken from US20050222130A1, “Inhibitors of RhoA kinase production/activation for relaxing the features of and/or for decontracting the skin” (L'OREAL, priority 2004, published 2005).

System: dermal equivalent comprising a collagen matrix seeded with normal human fibroblasts
Test: Spontaneous contraction of attached dermal equivalent (dermo-decontracting effect)
Format: cell-based
Settings: for inhibition of contraction of the dermal equivalent (in words): different concentrations
Source text: The principle of this test entails studying the dermo-decontracting effect of (R)(+)-trans-N-(4-pyridyl)-4-(1-aminoethyl)cyclohexanecarboxamide dihydrochloride (Y-27632) on a model of dermal equivalent comprising a collagen matrix seeded with normal human fibroblasts. These conditions are intended to mimic in vitro the dermal contractile phenomena that take place during facial expressions. Under these conditions, specifically, the cells spontaneously express tensile forces that induce a retraction of the collagen gel. […] Measurement of this area makes it possible to evaluate the relaxation effects of substances placed in contact beforehand with the dermal equivalent. Four series of 3 attached dermal equivalents containing normal human fibroblasts are prepared: a control series without any treatment, and three series treated with (R)(+)-trans-N-(4-pyridyl)-4-(1-aminoethyl)cyclohexanecarboxamide dihydrochloride at different concentrations. The experiment is repeated three times. The dermal equivalents are prepared as described in Asselineau et al., Exp. Cell. Res. 1985, 159, 536-539; Models in Dermatology, 1987, Vol. 33, pp. 1-7, in the following proportions: [table] The treated dermal equivalent differs from the control dermal equivalent in that variable amounts of (R)(+)-trans-N-(4-pyridyl)-4-(1-aminoethyl)cyclohexanecarboxamide dihydrochloride are added thereto. The collagen used is type I collagen (commercial solution), but a collagen of type III or IV may also be used. It is extracted from rat tails or from calf skin by acidic hydrolysis and stored in acidic medium at +4° C.; it naturally polymerizes on heating to 37° C. and on reducing the level of acidity. The collagen is predialyzed against successive baths of water+acetic acid. The protocol is as follows: 1.76×MEM medium in the presence of additives (1% glutamine, 1% nonessential amino acids, 1% sodium pyruvate, 1% fungizone and 1% penicillin/streptomycin), foetal calf serum and 0.1 N NaOH are introduced into a sterile flask tube. The fibroblasts isolated from human skin explants are then added at a concentration of 1.4×10^5 cells per 1 ml of culture medium. A volume/volume mixture of collagen in acetic acid to 1/1000 is then added slowly, against the wall of the tube so as to observe the appearance of a whitish cloud. The whole is then mixed cautiously and distributed in the wells of a 12-well culture plate (of the type Costar reference 3512) at a rate of 0.5 ml of mixture per cm^2. The culture plate is then placed in an incubator at 37° C. with 5% CO2. Once formed after polymerization of the collagen, the dermal equivalents are left adhering to the culture support for 3 days and then detached from the support in order for the contraction to be able to start. These attached dermal equivalents are removed from the incubator for the taking of the images to measure their surface area, for each point of the contraction kinetics (0, 4, 8 and 24 hours). They are immediately returned to the incubator between each measuring point. The evaluation of the spontaneous contraction of the treated dermal equivalents (treated with (R)(+)-trans-N-(4-pyridyl)-4-(1-aminoethyl)cyclohexanecarboxamide dihydrochloride) and control dermal equivalents (without (R)(+)-trans-N-(4-pyridyl)-4-(1-aminoethyl)cyclohexanecarboxamide) is performed by measuring their surface area, at different times after the start of the spontaneous contraction. To do this, a digital image is acquired for each treated or untreated dermal equivalent using a camera (Sony DXC-107P CCD-Iris camera) and the area is then calculated on each image using an image analysis system (Zeiss Axiovision 3.0). […]

[1] = 0.1 μM, 4 hours after detaching from support
[2] = 0.1 μM, 8 hours after detaching from support
[3] = 0.1 μM, 24 hours after detaching from support
[4] = 1 μM, 4 hours after detaching from support
[5] = 1 μM, 8 hours after detaching from support
[6] = 1 μM, 24 hours after detaching from support

Compound | reduction of percentage of contraction relative to the control [1] [%] | reduction of percentage of contraction relative to the control [2] [%] | reduction of percentage of contraction relative to the control [3] [%] | reduction of percentage of contraction relative to the control [4] [%] | reduction of percentage of contraction relative to the control [5] [%] | reduction of percentage of contraction relative to the control [6] [%] | reduction of percentage of contraction relative to the control (5 μM, 4 hours after detaching from support) [%] | reduction of percentage of contraction relative to the control (5 μM, 8 hours after detaching from support) [%] | reduction of percentage of contraction relative to the control (5 μM, 24 hours after detaching from support) [%] | inhibition of contraction of the dermal equivalent (in words) | effectiveness compared with Y-27632 at the same concentrations (same concentrations) | reversibility of the inhibition of contraction
O=S(=O)(c1cccc2cnccc12)N1CCCNCC1 [1-(5-isoquinolinesulfonyl)homopiperazine] | 2.6 | 2.4 | 1.5 | 8 | 9.5 | 8.2 | 17 | 19.4 | 22.2 | dose-dependent inhibition of contraction | less effective than | –
C[C@@H](N)[C@H]1CC[C@H](C(=O)Nc2ccncc2)CC1.Cl.Cl [(R)(+)-trans-N-(4-pyridyl)-4-(1-aminoethyl)cyclohexanecarboxamide dihydrochloride] | 6.1 | 6.4 | 7.2 | 20.6 | 24.4 | 29.3 | – | – | – | dose-dependent inhibition of contraction | – | reversible
